Key:
Test in all cases: radiometric filter-binding kinase assay
MAP3K7 TAB1 (human) = MAP3K7 TAB1 (human) (UniProt Q15750+O43318)
PAK7 (human) = PAK7 (human) (UniProt Q9P286)
DYRK1A (human) = DYRK1A (human) (UniProt Q13627)
MAPK15 (human) = MAPK15 (human) (UniProt Q8TD08)
CaMK1 (human) = CaMK1 (human) (UniProt Q14012)
EPHA4 (human) = EPHA4 (human) (UniProt P54764)
IGF1R (human) = IGF1R (human) (UniProt P08069)
EPHB2 (human) = EPHB2 (human) (UniProt P29323)
EPHB3 (human) = EPHB3 (human) (UniProt P54753)
MAPK14 (human) = MAPK14 (human) (UniProt Q16539)
DYRK2 (human) = DYRK2 (human) (UniProt Q92630)
MELK (human) = MELK (human) (UniProt Q14680)
PIM1 (human) = PIM1 (human) (UniProt P11309)
PIM1 (human), sequence (P11309 whole entry, looked up): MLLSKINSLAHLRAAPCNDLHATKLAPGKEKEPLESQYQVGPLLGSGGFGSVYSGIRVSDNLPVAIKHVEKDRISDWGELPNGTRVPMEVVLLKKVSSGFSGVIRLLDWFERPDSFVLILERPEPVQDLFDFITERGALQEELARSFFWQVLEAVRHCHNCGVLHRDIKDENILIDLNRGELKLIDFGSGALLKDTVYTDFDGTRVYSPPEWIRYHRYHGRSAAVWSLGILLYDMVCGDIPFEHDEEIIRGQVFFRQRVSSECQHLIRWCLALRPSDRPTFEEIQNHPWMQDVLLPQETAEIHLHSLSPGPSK

MAPK8 (human) = MAPK8 (human) (UniProt P45983)
MAPK8 (human), sequence (P45983 whole entry, looked up): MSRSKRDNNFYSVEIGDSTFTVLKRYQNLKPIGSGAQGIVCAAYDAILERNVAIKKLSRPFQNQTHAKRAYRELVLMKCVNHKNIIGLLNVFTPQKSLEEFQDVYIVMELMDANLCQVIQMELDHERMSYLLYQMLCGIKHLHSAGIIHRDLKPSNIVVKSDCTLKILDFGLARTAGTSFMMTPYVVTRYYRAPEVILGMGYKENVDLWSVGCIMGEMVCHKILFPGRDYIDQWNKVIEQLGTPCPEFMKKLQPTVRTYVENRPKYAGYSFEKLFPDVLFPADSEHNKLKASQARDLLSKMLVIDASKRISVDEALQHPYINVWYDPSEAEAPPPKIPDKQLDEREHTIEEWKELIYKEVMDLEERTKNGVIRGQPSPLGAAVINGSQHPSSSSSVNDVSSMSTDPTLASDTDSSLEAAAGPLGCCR

RIPK2 (human) = RIPK2 (human) (UniProt O43353)
RIPK2 (human), sequence (O43353 whole entry, looked up): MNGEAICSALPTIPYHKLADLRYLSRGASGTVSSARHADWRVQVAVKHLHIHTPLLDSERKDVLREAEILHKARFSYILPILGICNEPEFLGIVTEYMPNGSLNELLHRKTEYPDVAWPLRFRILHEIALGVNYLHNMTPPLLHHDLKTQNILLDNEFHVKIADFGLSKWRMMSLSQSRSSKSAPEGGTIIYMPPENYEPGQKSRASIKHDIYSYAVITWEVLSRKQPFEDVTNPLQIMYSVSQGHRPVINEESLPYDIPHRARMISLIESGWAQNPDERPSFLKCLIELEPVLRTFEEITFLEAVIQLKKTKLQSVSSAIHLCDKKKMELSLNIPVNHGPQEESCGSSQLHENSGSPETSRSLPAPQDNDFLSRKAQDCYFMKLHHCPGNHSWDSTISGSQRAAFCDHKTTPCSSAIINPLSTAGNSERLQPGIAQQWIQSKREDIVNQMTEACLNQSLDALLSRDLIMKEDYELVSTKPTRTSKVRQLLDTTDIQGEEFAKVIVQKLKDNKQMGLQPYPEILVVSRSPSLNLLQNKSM

PRKACA (human) = PRKACA (human) (UniProt P17612)
IKBKB (human) = IKBKB (human) (UniProt O14920)
CSK (human) = CSK (human) (UniProt P41240)
MAPKAPK5 (human) = MAPKAPK5 (human) (UniProt Q8IW41)
MAPKAPK5 (human), sequence (Q8IW41 whole entry, looked up): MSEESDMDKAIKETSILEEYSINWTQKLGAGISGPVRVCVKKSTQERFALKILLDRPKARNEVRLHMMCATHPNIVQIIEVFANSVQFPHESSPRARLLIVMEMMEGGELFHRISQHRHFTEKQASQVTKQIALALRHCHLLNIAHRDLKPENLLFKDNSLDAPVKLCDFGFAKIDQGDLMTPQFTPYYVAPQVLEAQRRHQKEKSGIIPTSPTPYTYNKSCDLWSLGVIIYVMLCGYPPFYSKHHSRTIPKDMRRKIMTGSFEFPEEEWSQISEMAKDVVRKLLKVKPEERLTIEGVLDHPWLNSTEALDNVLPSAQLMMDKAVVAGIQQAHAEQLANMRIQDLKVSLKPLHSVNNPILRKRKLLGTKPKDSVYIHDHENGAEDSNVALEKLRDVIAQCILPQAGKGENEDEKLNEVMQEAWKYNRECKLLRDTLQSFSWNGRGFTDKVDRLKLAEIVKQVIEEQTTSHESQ

CSNK1D (human) = CSNK1D (human) (UniProt P48730)
CSNK1D (human), sequence (P48730 whole entry, looked up): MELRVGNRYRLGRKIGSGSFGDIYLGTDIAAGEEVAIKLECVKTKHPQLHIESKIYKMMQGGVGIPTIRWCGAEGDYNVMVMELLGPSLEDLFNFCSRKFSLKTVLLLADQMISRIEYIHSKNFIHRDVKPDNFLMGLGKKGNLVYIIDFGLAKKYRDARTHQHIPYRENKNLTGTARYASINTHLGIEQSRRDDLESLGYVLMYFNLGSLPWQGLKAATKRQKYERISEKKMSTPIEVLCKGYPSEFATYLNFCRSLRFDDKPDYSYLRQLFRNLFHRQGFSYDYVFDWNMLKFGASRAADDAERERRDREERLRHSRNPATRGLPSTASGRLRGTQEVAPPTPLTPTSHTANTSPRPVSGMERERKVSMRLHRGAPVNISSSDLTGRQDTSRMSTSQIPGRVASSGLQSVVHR

MAP2K2 (human) = MAP2K2 (human) (UniProt P36507)
MAP3K11 (human) = MAP3K11 (human) (UniProt Q16584)
MKNK2 (human) = MKNK2 (human) (UniProt Q9HBH9)
HIPK2 (human) = HIPK2 (human) (UniProt Q9H2X6)
BRSK1 (human) = BRSK1 (human) (UniProt Q8TDC3)
CAMKK2 (human) = CAMKK2 (human) (UniProt Q96RR4)
MAPKAPK2 (human) = MAPKAPK2 (human) (UniProt P49137)
YES1 (human) = YES1 (human) (UniProt P07947)
AURKB (human) = AURKB (human) (UniProt Q96GD4)
PAK4 (human) = PAK4 (human) (UniProt O96013)
PAK4 (human), sequence (O96013 whole entry, looked up): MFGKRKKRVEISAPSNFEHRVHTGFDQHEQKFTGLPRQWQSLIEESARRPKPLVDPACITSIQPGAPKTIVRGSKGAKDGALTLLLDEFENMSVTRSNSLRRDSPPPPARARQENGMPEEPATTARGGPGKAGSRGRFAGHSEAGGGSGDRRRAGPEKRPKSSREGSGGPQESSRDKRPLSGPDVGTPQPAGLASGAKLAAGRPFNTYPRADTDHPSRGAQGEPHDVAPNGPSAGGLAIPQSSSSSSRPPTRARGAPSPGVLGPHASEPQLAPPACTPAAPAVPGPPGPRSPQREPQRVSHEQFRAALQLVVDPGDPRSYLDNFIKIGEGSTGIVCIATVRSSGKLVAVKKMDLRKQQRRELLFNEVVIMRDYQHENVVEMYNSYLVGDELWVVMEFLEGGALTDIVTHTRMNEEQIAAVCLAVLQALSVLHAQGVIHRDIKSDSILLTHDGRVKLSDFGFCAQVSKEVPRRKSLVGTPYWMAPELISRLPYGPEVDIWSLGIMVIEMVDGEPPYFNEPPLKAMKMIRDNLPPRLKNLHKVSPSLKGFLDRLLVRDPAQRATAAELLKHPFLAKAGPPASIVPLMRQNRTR

BTK (human) = BTK (human) (UniProt Q06187); settings: compound 1000.0 µM
MAPK9 (human) = MAPK9 (human) (UniProt P45984)
IKBKE (human) = IKBKE (human) (UniProt Q14164)
MAPK12 (human) = MAPK12 (human) (UniProt P53778)

MAPK15 (human), sequence (Q8TD08 whole entry, looked up): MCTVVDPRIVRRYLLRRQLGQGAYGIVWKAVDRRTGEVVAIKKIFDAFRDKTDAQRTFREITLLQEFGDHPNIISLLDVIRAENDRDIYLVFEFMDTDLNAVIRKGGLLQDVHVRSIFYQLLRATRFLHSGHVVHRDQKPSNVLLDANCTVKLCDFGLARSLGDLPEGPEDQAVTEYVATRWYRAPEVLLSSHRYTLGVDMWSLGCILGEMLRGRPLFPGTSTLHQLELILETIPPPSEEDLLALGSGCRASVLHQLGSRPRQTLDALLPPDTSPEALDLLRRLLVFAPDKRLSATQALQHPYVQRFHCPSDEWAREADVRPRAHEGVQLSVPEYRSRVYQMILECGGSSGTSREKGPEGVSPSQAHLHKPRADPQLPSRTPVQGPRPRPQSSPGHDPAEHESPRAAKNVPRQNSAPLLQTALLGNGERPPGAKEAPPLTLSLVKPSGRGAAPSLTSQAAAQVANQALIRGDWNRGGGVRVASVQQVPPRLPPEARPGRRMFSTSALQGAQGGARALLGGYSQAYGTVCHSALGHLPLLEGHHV
EPHA4 (human), sequence (P54764 whole entry, looked up): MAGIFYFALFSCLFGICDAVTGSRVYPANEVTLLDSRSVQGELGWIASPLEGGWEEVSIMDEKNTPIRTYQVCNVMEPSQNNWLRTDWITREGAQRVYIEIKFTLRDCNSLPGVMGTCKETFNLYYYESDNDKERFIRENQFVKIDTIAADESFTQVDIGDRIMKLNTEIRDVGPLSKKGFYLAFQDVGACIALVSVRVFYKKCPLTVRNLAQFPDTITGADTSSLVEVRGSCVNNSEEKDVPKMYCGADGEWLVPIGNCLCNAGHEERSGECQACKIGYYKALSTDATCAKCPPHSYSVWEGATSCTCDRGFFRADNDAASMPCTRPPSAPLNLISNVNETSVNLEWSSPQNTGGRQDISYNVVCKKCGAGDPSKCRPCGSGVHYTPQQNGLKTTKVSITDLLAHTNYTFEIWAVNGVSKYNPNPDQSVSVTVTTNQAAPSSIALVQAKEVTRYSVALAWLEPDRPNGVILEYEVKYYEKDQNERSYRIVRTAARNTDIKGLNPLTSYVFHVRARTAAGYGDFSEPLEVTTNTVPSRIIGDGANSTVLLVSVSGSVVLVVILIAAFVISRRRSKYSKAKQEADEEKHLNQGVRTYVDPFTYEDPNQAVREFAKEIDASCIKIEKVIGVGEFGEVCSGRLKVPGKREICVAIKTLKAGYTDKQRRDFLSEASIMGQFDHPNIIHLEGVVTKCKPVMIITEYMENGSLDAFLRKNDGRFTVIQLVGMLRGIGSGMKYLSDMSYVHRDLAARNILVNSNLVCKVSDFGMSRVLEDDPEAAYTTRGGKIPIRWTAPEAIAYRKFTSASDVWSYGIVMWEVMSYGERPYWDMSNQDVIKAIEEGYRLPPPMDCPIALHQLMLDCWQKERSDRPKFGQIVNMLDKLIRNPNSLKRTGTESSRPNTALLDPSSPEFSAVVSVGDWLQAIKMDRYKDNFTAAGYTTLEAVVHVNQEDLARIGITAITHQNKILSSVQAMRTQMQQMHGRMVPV
PAK7 (human), sequence (Q9P286 whole entry, looked up): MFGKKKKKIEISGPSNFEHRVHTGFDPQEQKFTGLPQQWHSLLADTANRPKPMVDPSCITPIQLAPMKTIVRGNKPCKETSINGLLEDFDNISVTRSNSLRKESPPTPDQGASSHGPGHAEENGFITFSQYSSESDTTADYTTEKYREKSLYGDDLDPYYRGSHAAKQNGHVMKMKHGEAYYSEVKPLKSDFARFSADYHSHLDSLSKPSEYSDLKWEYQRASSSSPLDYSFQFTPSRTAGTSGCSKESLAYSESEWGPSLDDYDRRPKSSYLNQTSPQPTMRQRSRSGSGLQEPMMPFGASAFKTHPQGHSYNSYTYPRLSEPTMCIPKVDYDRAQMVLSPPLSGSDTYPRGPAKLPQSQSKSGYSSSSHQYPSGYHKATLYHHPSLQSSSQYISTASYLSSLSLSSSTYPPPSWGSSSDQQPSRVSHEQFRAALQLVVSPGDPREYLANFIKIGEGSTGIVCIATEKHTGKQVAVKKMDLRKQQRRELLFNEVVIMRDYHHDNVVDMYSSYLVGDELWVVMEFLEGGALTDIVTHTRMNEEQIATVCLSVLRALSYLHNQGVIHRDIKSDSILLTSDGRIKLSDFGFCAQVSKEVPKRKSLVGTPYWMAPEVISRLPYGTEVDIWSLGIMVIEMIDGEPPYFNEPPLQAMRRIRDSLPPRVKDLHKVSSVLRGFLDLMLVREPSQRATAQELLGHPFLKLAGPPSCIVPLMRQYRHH

**Q.** What does the source list for COC(=O)/C=C/C(=O)OC?
**A.** residual activity (MAP3K7 TAB1 (human); compound 10.0 µM): 105%; residual activity (MAP3K7 TAB1 (human); compound 100.0 µM): 115%; residual activity (MAP3K7 TAB1 (human); compound 1000.0 µM): 103%; residual activity (PAK7 (human); compound 10.0 µM): 87%; residual activity (PAK7 (human); compound 100.0 µM): 125%; residual activity (PAK7 (human); compound 1000.0 µM): 93%; residual activity (DYRK1A (human); compound 10.0 µM): 105%; residual activity (DYRK1A (human); compound 100.0 µM): 109%; residual activity (DYRK1A (human); compound 1000.0 µM): 113%; residual activity (MAPK15 (human); compound 10.0 µM): 89%; residual activity (MAPK15 (human); compound 100.0 µM): 100%; residual activity (MAPK15 (human); compound 1000.0 µM): 96%; residual activity (CaMK1 (human); compound 10.0 µM): 88%; residual activity (CaMK1 (human); compound 100.0 µM): 96%; residual activity (CaMK1 (human); compound 1000.0 µM): 99%; residual activity (EPHA4 (human); compound 10.0 µM): 98%; residual activity (EPHA4 (human); compound 100.0 µM): 105%; residual activity (EPHA4 (human); compound 1000.0 µM): 119%; residual activity (IGF1R (human); compound 100.0 µM): 92%; residual activity (IGF1R (human); compound 1000.0 µM): 117%; residual activity (EPHB2 (human); compound 10.0 µM): 118%; residual activity (EPHB2 (human); compound 100.0 µM): 118%; residual activity (EPHB2 (human); compound 1000.0 µM): 120%; residual activity (EPHB3 (human); compound 10.0 µM): 97%; residual activity (EPHB3 (human); compound 100.0 µM): 105%; residual activity (EPHB3 (human); compound 1000.0 µM): 114%; residual activity (MAPK14 (human); compound 10.0 µM): 90%; residual activity (MAPK14 (human); compound 100.0 µM): 99%; residual activity (MAPK14 (human); compound 1000.0 µM): 106%; residual activity (DYRK2 (human); compound 10.0 µM): 91%; residual activity (DYRK2 (human); compound 100.0 µM): 94%; residual activity (DYRK2 (human); compound 1000.0 µM): 103%; residual activity (MELK (human); compound 10.0 µM): 93%; residual activity (MELK (human); compound 100.0 µM): 103%; residual activity (PIM1 (human); compound 10.0 µM): 99%; residual activity (PIM1 (human); compound 100.0 µM): 107%; residual activity (PIM1 (human); compound 1000.0 µM): 101%; residual activity (MAPK8 (human); compound 10.0 µM): 99%; residual activity (MAPK8 (human); compound 100.0 µM): 92%; residual activity (MAPK8 (human); compound 1000.0 µM): 109%; residual activity (RIPK2 (human); compound 10.0 µM): 93%; residual activity (RIPK2 (human); compound 100.0 µM): 104%; residual activity (RIPK2 (human); compound 1000.0 µM): 111%; residual activity (PRKACA (human); compound 10.0 µM): 92%; residual activity (PRKACA (human); compound 100.0 µM): 96%; residual activity (PRKACA (human); compound 1000.0 µM): 99%; residual activity (IKBKB (human); compound 10.0 µM): 84%; residual activity (IKBKB (human); compound 100.0 µM): 91%; residual activity (IKBKB (human); compound 1000.0 µM): 85%; residual activity (CSK (human); compound 10.0 µM): 87%; residual activity (CSK (human); compound 100.0 µM): 82%; residual activity (CSK (human); compound 1000.0 µM): 86%; residual activity (MAPKAPK5 (human); compound 10.0 µM): 96%; residual activity (MAPKAPK5 (human); compound 100.0 µM): 92%; residual activity (MAPKAPK5 (human); compound 1000.0 µM): 94%; residual activity (CSNK1D (human); compound 10.0 µM): 88%; residual activity (CSNK1D (human); compound 100.0 µM): 94%; residual activity (CSNK1D (human); compound 1000.0 µM): 105%; residual activity (MAP2K2 (human); compound 10.0 µM): 105%; residual activity (MAP2K2 (human); compound 100.0 µM): 101%; residual activity (MAP3K11 (human); compound 10.0 µM): 100%; residual activity (MAP3K11 (human); compound 100.0 µM): 97%; residual activity (MKNK2 (human); compound 10.0 µM): 101%; residual activity (MKNK2 (human); compound 100.0 µM): 107%; residual activity (MKNK2 (human); compound 1000.0 µM): 110%; residual activity (HIPK2 (human); compound 10.0 µM): 98%; residual activity (HIPK2 (human); compound 100.0 µM): 101%; residual activity (HIPK2 (human); compound 1000.0 µM): 94%; residual activity (BRSK1 (human); compound 100.0 µM): 93%; residual activity (BRSK1 (human); compound 1000.0 µM): 91%; residual activity (CAMKK2 (human); compound 100.0 µM): 101%; residual activity (CAMKK2 (human); compound 1000.0 µM): 93%; residual activity (MAPKAPK2 (human); compound 10.0 µM): 92%; residual activity (MAPKAPK2 (human); compound 100.0 µM): 86%; residual activity (MAPKAPK2 (human); compound 1000.0 µM): 93%; residual activity (YES1 (human); compound 10.0 µM): 114%; residual activity (YES1 (human); compound 100.0 µM): 116%; residual activity (YES1 (human); compound 1000.0 µM): 118%; residual activity (AURKB (human); compound 10.0 µM): 90%; residual activity (AURKB (human); compound 100.0 µM): 102%; residual activity (AURKB (human); compound 1000.0 µM): 98%; residual activity (PAK4 (human); compound 10.0 µM): 76%; residual activity (PAK4 (human); compound 100.0 µM): 88%; residual activity (PAK4 (human); compound 1000.0 µM): 95%; residual activity (BTK (human)): 135%; residual activity (MAPK9 (human); compound 10.0 µM): 90%; residual activity (MAPK9 (human); compound 100.0 µM): 94%; residual activity (MAPK9 (human); compound 1000.0 µM): 101%; residual activity (IKBKE (human); compound 10.0 µM): 80%; residual activity (IKBKE (human); compound 100.0 µM): 96%; residual activity (IKBKE (human); compound 1000.0 µM): 93%; residual activity (MAPK12 (human); compound 10.0 µM): 87%; residual activity (MAPK12 (human); compound 100.0 µM): 96%; residual activity (MAPK12 (human); compound 1000.0 µM): 104%
